Converted amounts (≈) assume the structure as drawn.
Experiments:
[1] = system: Aspergillus fumigatus IFO8868; experiment: Therapeutic effect, oral, mice infected with Aspergillus fumigatus IFO8868 (4), Table 2d; format: in vivo; settings: average survival days of Ketoconazole taken as 100; Aspergillus fumigatus 5.8×10^6 cells/mouse i.v.; 0.8 mg/mouse oral, 2 hours after infection and once daily for six consecutive days; 10 days observation; 10 mice
Protocol: (4) The therapeutic effects of the present compounds, when they were administered orally, were examined using mice infected with Aspergillus fumigatus IFO8868.
(§1) Aspergillus fumigatus IFO8868 was injected in a proportion of 5.8×10^6 cells/mouse to a group of 10 ICR strain male mice (weight: 19-21 g) intravenously at the tails, whereby the mice were infected with the fungi. […] The relative therapeutic index of the test compound was determined from the average survival days.
The results are shown in Table 2d, in which the relative therapeutic index of each test compound is a value calculated by taking the average survival days of Ketoconazole as 100.

Candida albicans ON28 [2] = experiment: Minimum inhibitory concentration (MIC) against Candida albicans ON28; format: cell-based; settings: ON28, 72 h, TC broth medium, 10^4 spores/ml, 37° C., 3 days
Protocol: (§2) MIC was determined in accordance with the method of M. S. Marriott [25th Interscience Conference on Antimicrobial Agents and Chemotherapy, p. 243 (1985)].
(§3) Candida albicans ON28 was cultured in a sabouraud dextrose agar medium containing 10 g of neopeptone, 20 g of glucose and 15 g of agar per liter, at 30° C. for 1-2 days. The yeast cells were suspended in sterile distilled water. Separately, Aspergillus fumigatus IFO8868 was cultured in a potato dextrose agar medium (manufactured by Nissui Pharmaceutical Co., Ltd.) at 30° C. until the conidia were formed abundantly. The formed conidia were suspended in a sterile physiological saline containing 0.1% of Tween 80. Each of the Candida albicans suspension and the Aspergillus fumigatus suspension was inoculated into a TC broth medium (containing 1.17 g of an yeast carbon base, 0.25 g of ammonium sulfate, 2.0 ml of a 50-fold concentrate of L-glutamic acid-containing MEM amino acid, 20 ml of a 0.5M phosphate buffer of pH 7.5 and 1.33 ml of 7.5% sodium hydrogencarbonate per 100 ml) containing a test compound, so that the final fungal amount became 10^4 spores/ml. Then, culture was conducted at 37° C. for 3 days. Thereafter, the growth of fungi was examined. The minimum concentration of test compound at which the growth of fungi had been inhibited, was taken as MIC (μg/ml).

Candida albicans ON28 [3] = experiment: Therapeutic effect, oral, mice infected with Candida albicans ON28 (3), Table 2c; format: in vivo, ICR strain male mice infected with Candida albicans ON28; settings: average survival days of Ketoconazole taken as 100; Candida albicans 5.7×10^6 cells/mouse i.v.; 0.1 mg/mouse oral, 2 hours after infection; 10 days observation; 10 mice
Protocol: (3) The therapeutic effects of the present compounds, when they were administered orally, were examined using mice infected with Candida albicans ON28.
as §1, with “Candida albicans ON28” for “Aspergillus fumigatus IFO8868”, “5.7×10^6” for “5.8×10^6”
The results are shown in Table 2c, in which the relative therapeutic index of each test compound is a value calculated by taking the average survival days Ketoconazole as 100.

[4] = system: Aspergillus fumigatus IFO8868; experiment: Minimum inhibitory concentration (MIC) against Aspergillus fumigatus IFO8868; format: cell-based; settings: IFO8868, 72 h, TC broth medium, 10^4 spores/ml, 37° C., 3 days
Protocol: as §2, §3

[5] = Acute toxicity in mice, intravenous; format: in vivo; settings: intravenous at the tail, ICR strain male mice, group of 5; 50% solution in polyethylene glycol 300
Protocol: Each of the compounds of Examples 10, 12, 19, 79, 142 and 146 was administered to a group of 5 ICR strain male mice (weight: 29-31 g) intravenously at the tails, and the acute toxicity of each compound was examined.
Each compound was administered in the form of a 50% solution in polyethylene glycol 300.

SMILES | Relative therapeutic index [1] | MIC (Candida albicans ON28 [2]) | Relative therapeutic index (Candida albicans ON28 [3]) | MIC [4] | dose up to which no dead case occurred (acute toxicity) [5]
O=C(NC1CC1)C(F)(F)C(O)(Cn1cncn1)c1ccc(F)cc1F (single isomer, unassigned) [Example 145] | 353 | 0.1 µg/mL (≈ 0.279 µM) | 409 | 12.5 µg/mL (≈ 34.9 µM) | –
CNC(=O)C(F)(F)C(O)(Cn1cncn1)c1ccc(F)cc1F (single isomer, unassigned) [Example 143] | 242 | 0.2 µg/mL (≈ 0.602 µM) | 450 | 25 µg/mL (≈ 75.2 µM) | –
N#CCc1ccc(NC(=O)C(F)(F)C(O)(Cn2cncn2)c2ccc(F)cc2F)cc1 (stereo not shown) [Example 138] | – | 0.1 µg/mL (≈ 0.231 µM) | – | 12.5 µg/mL (≈ 28.8 µM) | –
O=C(NC1CCCC1)C(F)(F)C(O)(Cn1cncn1)c1ccc(F)cc1F (stereo not shown) [Example 20] | – | ≤ 0.05 µg/mL | – | 100 µg/mL (≈ 259 µM) | –
Cc1ccc(NC(=O)C(F)(F)C(O)(Cn2cncn2)c2ccc(F)cc2F)cc1 (stereo not shown) [Example 43] | – | ≤ 0.05 µg/mL | – | 25 µg/mL (≈ 61.2 µM) | –
O=C(Nc1ccc(Cl)cc1)C(F)(F)C(O)(Cn1cncn1)c1ccc(F)cc1F (stereo not shown) [Example 42, N-(4-chlorophenyl)-3-(2,4-difluorophenyl)-2,2-difluoro-3-hydroxy-4-(1H-1,2,4-triazol-1-yl)butanamide] | – | ≤ 0.05 µg/mL | – | 50 µg/mL (≈ 117 µM) | –
CNC(=O)C(F)(F)C(O)(Cn1cncn1)c1ccc(F)cc1Cl (single isomer, unassigned) [Example 147] | 526 | 0.1 µg/mL (≈ 0.287 µM) | 414 | 6.25 µg/mL (≈ 17.9 µM) | –
COc1ccccc1NC(=O)C(F)(F)C(O)(Cn1cncn1)c1ccc(F)cc1F (stereo not shown) [Example 45] | – | ≤ 0.05 µg/mL | – | 50 µg/mL (≈ 118 µM) | –
CCNC(=O)C(F)(F)C(O)(Cn1cncn1)c1ccc(F)cc1F (single isomer, unassigned) [Example 144] | – | 0.1 µg/mL (≈ 0.289 µM) | – | 6.25 µg/mL (≈ 18 µM) | –
CCNC(=O)C(F)(F)C(O)(Cn1cncn1)c1cc(F)ccc1F (stereo not shown) [Example 117] | – | 0.39 µg/mL (≈ 1.13 µM) | – | 25 µg/mL (≈ 72.2 µM) | –
COc1ccc(NC(=O)C(F)(F)C(O)(Cn2cncn2)c2ccc(F)cc2F)cc1 (stereo not shown) [Example 139] | – | 0.05 µg/mL (≈ 0.118 µM) | – | 12.5 µg/mL (≈ 29.5 µM) | –
NC(=O)C(F)(F)C(O)(Cn1cncn1)c1ccc(F)cc1Cl (stereo not shown) [Example 79] | 400 | 0.78 µg/mL (≈ 2.33 µM) | 405 | 50 µg/mL (≈ 149 µM) | ≥ 200 mg/kg
C=CCNC(=O)C(F)(F)C(O)(Cn1cncn1)c1ccc(F)cc1F (stereo not shown) [Example 17] | – | 0.1 µg/mL (≈ 0.279 µM) | – | 12.5 µg/mL (≈ 34.9 µM) | –
NC(=O)C(F)(F)C(O)(Cn1cncn1)c1ccc(F)cc1Cl (single isomer, unassigned) [Example 146] | 500 | 0.39 µg/mL (≈ 1.17 µM) | 418 | 50 µg/mL (≈ 149 µM) | ≥ 200 mg/kg
Cc1ccc(NC(=O)C(F)(F)C(O)(Cn2cncn2)c2ccc(F)cc2F)c(C)c1 (stereo not shown) [Example 44] | – | ≤ 0.05 µg/mL | – | 1.56 µg/mL (≈ 3.69 µM) | –
NC(=O)C(F)(Cc1ccccc1)C(O)(Cn1cncn1)c1ccc(F)cc1F (stereo not shown) [Example 56] | – | 0.39 µg/mL (≈ 0.999 µM) | – | 100 µg/mL (≈ 256 µM) | –
O=C(NC1CCCCC1)C(F)(F)C(O)(Cn1cncn1)c1ccc(F)cc1F (stereo not shown) [Example 21] | – | ≤ 0.05 µg/mL | – | 100 µg/mL (≈ 250 µM) | –
CCNC(=O)C(F)(F)C(O)(Cn1cncn1)c1ccc(F)cc1Cl (stereo not shown) [Example 81] | – | 0.1 µg/mL (≈ 0.276 µM) | – | 3.13 µg/mL (≈ 8.63 µM) | –
CNC(=O)C(F)(F)C(O)(Cn1cncn1)c1ccccc1F (stereo not shown) [Example 72] | – | 0.39 µg/mL (≈ 1.24 µM) | – | 50 µg/mL (≈ 159 µM) | –
O=C(NCc1ccc(Cl)cc1)C(F)(F)C(O)(Cn1cncn1)c1ccc(F)cc1F (stereo not shown) [Example 22] | – | ≤ 0.05 µg/mL | – | 12.5 µg/mL (≈ 28.2 µM) | –
O=C(NC1(c2ccc(Cl)cc2)CC1)C(F)(F)C(O)(Cn1cncn1)c1ccc(F)cc1F (stereo not shown) [Example 5] | – | ≤ 0.05 µg/mL | – | 12.5 µg/mL (≈ 26.7 µM) | –
O=C(NC1CC1)C(F)(F)C(O)(Cn1cncn1)c1ccc(F)cc1Cl (single isomer, unassigned) [Example 148] | – | 0.1 µg/mL (≈ 0.267 µM) | – | 3.13 µg/mL (≈ 8.35 µM) | –

SMILES | Relative therapeutic index [1] | MIC (Candida albicans ON28 [2]) | Relative therapeutic index (Candida albicans ON28 [3]) | MIC [4] | dose up to which no dead case occurred (acute toxicity) [5]
O=C(NC1CC1)C(F)(F)C(O)(Cn1cncn1)c1ccccc1F (stereo not shown) [Example 8, N-cyclopropyl-2,2-difluoro-3-(2-fluorophenyl)-3-hydroxy-4-(1H-1,2,4-triazol-1-yl)butanamide] | – | 0.78 µg/mL (≈ 2.29 µM) | – | 25 µg/mL (≈ 73.5 µM) | –
CCCNC(=O)C(F)(F)C(O)(Cn1cncn1)c1ccc(F)cc1F (stereo not shown) [Example 16] | – | ≤ 0.05 µg/mL | – | 25 µg/mL (≈ 69.4 µM) | –
O=C(Nc1ccc(C(F)(F)F)cc1)C(F)(F)C(O)(Cn1cncn1)c1ccc(F)cc1F (stereo not shown) [Example 136] | – | 0.025 µg/mL (≈ 0.0541 µM) | – | 12.5 µg/mL (≈ 27 µM) | –
CC(C)NC(=O)C(F)(F)C(O)(Cn1cncn1)c1ccc(F)cc1F (stereo not shown) [Example 33] | – | 0.2 µg/mL (≈ 0.555 µM) | – | 50 µg/mL (≈ 139 µM) | –
CCNC(=O)C(F)(F)C(O)(Cn1cncn1)c1ccc(Cl)cc1F (stereo not shown) [Example 83] | – | 0.1 µg/mL (≈ 0.276 µM) | – | 25 µg/mL (≈ 68.9 µM) | –
CC(C)CNC(=O)C(F)(F)C(O)(Cn1cncn1)c1ccc(F)cc1F (stereo not shown) [Example 35] | – | ≤ 0.05 µg/mL | – | 25 µg/mL (≈ 66.8 µM) | –
CC(C)(C)NC(=O)C(F)(F)C(O)(Cn1cncn1)c1ccc(F)cc1F (stereo not shown) [Example 51] | – | 0.1 µg/mL (≈ 0.267 µM) | – | 12.5 µg/mL (≈ 33.4 µM) | –
CCNC(=O)C(F)(F)C(O)(Cn1cncn1)c1cc(F)c(F)cc1F (stereo not shown) [Example 88] | – | 0.2 µg/mL (≈ 0.549 µM) | – | 50 µg/mL (≈ 137 µM) | –
CC1CN(C(=O)C(F)(F)C(O)(Cn2cncn2)c2ccc(F)cc2F)CC(C)O1 (stereo not shown) [Example 39, 4-[3-(2,4-difluorophenyl)-2,2-difluoro-3-hydroxy-4-(1H-1,2,4-triazol-1-yl)butanoyl]-2,6-dimethylmorpholine] | – | 6.25 µg/mL (≈ 15 µM) | – | 100 µg/mL (≈ 240 µM) | –
CNC(=O)C(F)(F)C(O)(Cn1cncn1)c1ccc(F)cc1Cl (stereo not shown) [Example 80] | 416 | 0.39 µg/mL (≈ 1.12 µM) | 455 | 12.5 µg/mL (≈ 35.8 µM) | –
CNC(=O)C(F)(F)C(O)(Cn1cncn1)c1ccccc1Cl (stereo not shown) [Example 74] | – | 0.78 µg/mL (≈ 2.36 µM) | – | 12.5 µg/mL (≈ 37.8 µM) | –
O=C(NC1CC1)C(F)(F)C(O)(Cn1cncn1)c1ccccc1Cl (stereo not shown) [Example 3] | – | 0.39 µg/mL (≈ 1.09 µM) | – | 12.5 µg/mL (≈ 35 µM) | –
CCCCNC(=O)C(F)(F)C(O)(Cn1cncn1)c1ccc(F)cc1F (stereo not shown) [Example 114] | – | 0.05 µg/mL (≈ 0.134 µM) | – | 12.5 µg/mL (≈ 33.4 µM) | –
NC(=O)C(F)(F)C(O)(Cn1cncn1)c1ccc(F)cc1F (single isomer, unassigned) [Example 142] | 216 | 0.78 µg/mL (≈ 2.45 µM) | 405 | 100 µg/mL (≈ 314 µM) | ≥ 200 mg/kg
CCNC(=O)C(F)(F)C(O)(Cn1cncn1)c1ccccc1F (stereo not shown) [Example 73] | – | 0.39 µg/mL (≈ 1.19 µM) | – | 25 µg/mL (≈ 76.2 µM) | –
O=C(NC1CC1)C(F)(F)C(O)(Cn1cncn1)c1ccc(Cl)cc1Cl (stereo not shown) [Example 85] | – | 0.1 µg/mL (≈ 0.256 µM) | – | 12.5 µg/mL (≈ 32 µM) | –
CCNC(=O)C(F)(F)C(O)(Cn1cncn1)c1ccccc1Cl (stereo not shown) [Example 75] | – | 0.2 µg/mL (≈ 0.58 µM) | – | 6.25 µg/mL (≈ 18.1 µM) | –
NC(=O)C(F)(F)C(O)(Cn1cncn1)c1ccc(F)cc1F (stereo not shown) [Example 10, 3-(2,4-difluorophenyl)-2,2-difluoro-3-hydroxy-4-(1H-1,2,4-triazol-1-yl)butanamide] | 200 | – | 414 | – | ≥ 200 mg/kg
CC1(NC(=O)C(F)(F)C(O)(Cn2cncn2)c2ccc(F)cc2F)CC1 (stereo not shown) [Example 4] | – | 0.1 µg/mL (≈ 0.269 µM) | – | 50 µg/mL (≈ 134 µM) | –
CNC(=O)C(F)(F)C(O)(Cn1cncn1)c1ccc(F)cc1F (stereo not shown) [Example 11] | 174 | 0.2 µg/mL (≈ 0.602 µM) | 423 | 100 µg/mL (≈ 301 µM) | –
CCNC(=O)C(F)(F)C(O)(Cn1cncn1)c1ccccc1 (stereo not shown) [Example 69] | – | 0.39 µg/mL (≈ 1.26 µM) | – | 50 µg/mL (≈ 161 µM) | –

— US5605921A, “Triazole derivatives and salts thereof, and antifungal agent containing the same” (Toyama Chemical Co., Ltd., priority 1991, dated 1997)
